The test addresses human RIP1 kinase domain (2-375) (Homo sapiens (Human), UniProt Q13546). The test can be described thus: RIP1 kinase inhibition biochemical assay (Transcreener ADP, fluorescence polarization). Conditions: apparent Ki (Kiapp, Morrison tight-binding fit); 50 nM enzyme, 50 uM ATP, 2 hours incubation. The procedure: RIP1 Kinase Inhibition Assays (Biochemical Assay):
The compounds of the present invention were tested for their capacity to inhibit RIP IK activity as described below.
Enzyme assay: The ability of the receptor interacting protein kinase (RIPK1) to catalyze the hydrolysis of adenosine-5′-triphosphate (ATP) is monitored using the Transcreener ADP (adenosine-5′-diphosphate) assay (BellBrook Labs). Purified human RIP1 kinase domain (2-375) (50 nM) derived from a baculovirus-infected insect cell expression system is incubated with test compounds for 2 hours in 50 mM Hepes buffer (pH 7.5) containing 30 mM MgCl2, 1 mM dithiothreitol, 50 uM ATP, 0.002% Brij-35, and 0.5% dimethyl sulfoxide (DMSO). Reactions are quenched by the addition of IX Bell Brooks Stop buffer B (20 mM Hepes (ph7.5), 40 mM ethylenediaminetetraacetic acid and 0.02% Brij-35) containing an additional 12 mM EDTA and 55 ug/mL ADP2 antibody and 4 nM ADP-AlexaFluor® 633 tracer. The tracer bound to the antibody is displaced by the ADP generated during the RIP IK reaction, which causes a decrease in fluorescence polarization that is measured by laser excitation at 633 nm with a FP microplate reader M1000. Fractional activity was plotted against test article concentration. […]
(Polarisation of emitted light reports the rotation of a fluorescent probe.)

Each structure is given as a SMILES string.

human RIP1 kinase domain (2-375), sequence (Q13546 2-375): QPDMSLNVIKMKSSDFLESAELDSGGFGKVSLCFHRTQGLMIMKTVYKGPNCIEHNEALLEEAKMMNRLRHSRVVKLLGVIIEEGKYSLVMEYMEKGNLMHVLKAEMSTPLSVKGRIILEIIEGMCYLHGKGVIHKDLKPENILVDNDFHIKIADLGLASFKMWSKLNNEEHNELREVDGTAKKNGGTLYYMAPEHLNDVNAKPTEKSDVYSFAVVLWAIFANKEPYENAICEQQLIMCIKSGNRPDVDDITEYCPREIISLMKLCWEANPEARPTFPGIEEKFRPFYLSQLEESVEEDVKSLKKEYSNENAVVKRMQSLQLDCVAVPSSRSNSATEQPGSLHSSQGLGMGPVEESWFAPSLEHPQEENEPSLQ

As to `O=C(c1nc2n(n1)CCC2c1ccccc1F)N1CC(F)(F)C1` (racemic) [Example 14, (3,3-difluoroazetidin-1-yl)-[7-(2-fluorophenyl)-6,7-dihydro-5H-pyrrolo[1,2-b][1,2,4]triazol-2-yl]methanone], the Ki stood at 233 nM.

Take `O=C(c1nc2n(n1)[C@H](c1ccccc1)C[C@@H]2F)N1CC(F)(F)C1` (single isomer, unassigned) [Example 36]: the Ki came out at 4 nM.

Source of the values: patent publication US11607396B2, “Bicyclic amide compounds and methods of use thereof” (Genentech, Inc., priority 2016, dated 2023).
